Measurements from ChEMBL document CHEMBL1201862, “PubChem BioAssay data set” (2004).
Active and inactive are the calls of the source.

Columns and labels:
[1] = system: Streptococcus sp. 'group A'; assay: growth inhibition of control SK(-) GAS strain, dose response, counter-screen for streptokinase expression inhibitor project, luminescence, kanamycin, BacTiterGlo, confirmation (AID 1900); type: functional, organism-based
CHO = assay: cytotoxicity in TLR9-MyD88 CHO cells, dose response, cytotoxicity control for TLR9-MyD88 binding inhibitor project, cell-based, luminescence (AID 588339); type: functional, hamster; settings: Cricetulus griseus;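 note: CHO cells stably coexpressing TLR9 and MyD88 fusions from primary screen; compound exposure lasted 48 hours before viability readout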
[2] = Shn3 3'UTR reporter inhibitors, dose response, cell-based, Clone20 osteoblasts, firefly luciferase, cherry-picked (AID 624132); type: functional;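 note: firefly luciferase luminescence from reporter carrying the Shn3 3'UTR in osteoblasts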
[3] = molecular target: Heat shock protein HSP 90-alpha (Homo sapiens, UniProt P07900); type: functional, organism-based
Streptokinase A = molecular target: T1, Streptokinase A (Streptococcus pyogenes serotype M1, UniProt P10520); assay: S. pyogenes streptokinase expression inhibitors, potency, dose response, plasminogen activation absorbance, OD405 (AID 1914); type: functional, Streptococcus pyogenes M1 GAS;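 note: secreted streptokinase activity via plasminogen activation per viability signal from cell pellet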
T1 sequence (P10520 whole entry): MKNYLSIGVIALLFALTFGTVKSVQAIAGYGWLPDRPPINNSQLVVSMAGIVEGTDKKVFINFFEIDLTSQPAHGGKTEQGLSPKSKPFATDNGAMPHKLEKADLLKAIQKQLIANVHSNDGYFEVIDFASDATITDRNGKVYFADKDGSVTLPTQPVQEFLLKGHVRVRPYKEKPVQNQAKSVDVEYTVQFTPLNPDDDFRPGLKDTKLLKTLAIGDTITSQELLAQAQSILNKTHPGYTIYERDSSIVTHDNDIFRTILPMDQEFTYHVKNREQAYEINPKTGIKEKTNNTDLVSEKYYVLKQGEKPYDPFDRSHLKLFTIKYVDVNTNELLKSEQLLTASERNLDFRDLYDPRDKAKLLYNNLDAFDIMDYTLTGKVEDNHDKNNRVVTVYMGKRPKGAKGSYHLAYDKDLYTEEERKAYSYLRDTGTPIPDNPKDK

[4] = inhibitors of intracellular T. cruzi replication, confirmation, NIH3T3 host cells, beta-gal luminescence (AID 2044); type: functional, cell-based;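 note: intracellular parasites grown in NIH/3T3 mouse fibroblasts as host cells; luminescent beta-galactosidase reporter signal from transgenic T. cruzi replicating inside host cells; inhibitors lower the luminescence signal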
[5] = cytotoxicity toward NIH3T3 fibroblasts, dose response, counter-screen, cell-based, ATP luminescence, mouse fibroblasts (AID 2010); type: functional;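 note: cells exposed to compound for about 90 hours before reading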
Streptococcus = assay: Group A Streptococcus viability loss, dose response, counter-screen for streptokinase expression inhibitor project, luminescence, BacTiterGlo (AID 1915); type: functional, organism-based;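 note: potency for reduction of bacterial viability or growth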
[6] = Luminescent dose response cell-based high throughput screening assay for inhibitors of the Janus kinase 2 mutant JAK2V617F. [Related pubchem assays: 1446 (Primary screen.), 1521 (Confirmation assay.), 1486 (Counter screen.)]; type: functional
[7] = control 3'UTR Renilla luciferase suppression, dose response, counter-screen for Shn3 inhibitor project, cell-based, Clone20-Shn3RL, cherry-picked (AID 624133); type: functional
[8] = HepG2 cell cytotoxicity, dose response, cytotoxicity control for Shn3 inhibitor project, CellTiter-Glo, cherry-picked (AID 624134); type: functional, cell-based
[9] = molecular target: T2, Voltage-gated N-type calcium channel alpha-1B subunit/Amyloid beta A4 precursor protein-binding family A member 1 (Homo sapiens, UniProt Q00975+Q02410); type: protein assay
Melanocortin receptor 4 = Melanocortin receptor 4 (Homo sapiens, UniProt P32245); assay: MC4R antagonist potency on cAMP, dose response, cell-based, TR-FRET, biased antagonists (AID 602298); type: functional;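 note: antagonist potency against agonist-stimulated cAMP production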
[10] = nonselective inhibitors of cellular cAMP signaling, dose response, counter-screen for MC4R biased antagonist project, cell-based, TR-FRET cAMP detection (AID 602305); type: functional;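 note: U2OS cells stimulated with forskolin near its EC80 as the cAMP inducer; potency is for inhibition of forskolin-stimulated cAMP signaling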
[11] = molecular target: T2, Voltage-gated N-type calcium channel alpha-1B subunit/Amyloid beta A4 precursor protein-binding family A member 1; type: protein assay; remark: listed apart in the source
Beta-galactosidase = Beta-galactosidase (Escherichia coli, UniProt Q8VNN2); assay: beta-galactosidase enzyme inhibitors and activators, dose response, artefact control for CCR6 antagonist project, biochemical, E. coli enzyme, set 3 (AID 504712); type: functional
[12] = molecular target: Glucose-6-phosphate 1-dehydrogenase (Homo sapiens, UniProt P11413); assay: human G6PD enzyme inhibitors, dose response, selectivity assay for P. falciparum G6PD inhibitor project, biochemical, fluorescence (AID 504792); type: functional
[13] = molecular target: Polyadenylate-binding protein 1 (Homo sapiens, UniProt P11940); assay: PABP inhibition in translation initiation, SAR follow-up (AID 435018); type: functional
[14] = molecular target: Eukaryotic translation initiation factor 4H (Homo sapiens, UniProt Q15056); assay: eIF4H inhibition in translation initiation, SAR follow-up (AID 435011); type: functional
[15] = molecular target: T3, Dual specificity protein phosphatase 3 (Homo sapiens, UniProt P51452); assay: SAR VHR1 Fluorescent Assay for In Vitro dose response studies. [Related pubchem assays (depositor defined):AID1654, AID1661, AID1878, AID1992, AID2004, AID2070, AID2085]; type: functional
[16] = molecular target: T4, Tyrosine-protein phosphatase non-receptor type 7 (Homo sapiens, UniProt P35236); assay: redox-dependent HePTP inhibition, mechanism study, biochemical, fluorescence (AID 2068); type: functional
T4 sequence (P35236 whole entry): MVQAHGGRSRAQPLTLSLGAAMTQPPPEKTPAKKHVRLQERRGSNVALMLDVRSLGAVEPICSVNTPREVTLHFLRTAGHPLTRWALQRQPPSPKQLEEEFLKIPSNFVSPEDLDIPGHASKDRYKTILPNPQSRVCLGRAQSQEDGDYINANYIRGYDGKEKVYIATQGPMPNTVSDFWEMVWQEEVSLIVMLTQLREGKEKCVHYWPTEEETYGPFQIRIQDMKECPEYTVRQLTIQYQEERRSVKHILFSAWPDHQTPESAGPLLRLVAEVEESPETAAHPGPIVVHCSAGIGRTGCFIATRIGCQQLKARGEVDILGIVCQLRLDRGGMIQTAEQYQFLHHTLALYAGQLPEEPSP

[17] = molecular target: T3, Dual specificity protein phosphatase 3; assay: SAR VHR1 absorbance Assay for In Vitro dose response studies. [Related pubchem assays (depositor defined):AID1654, AID1661, AID1878, AID1992, AID2004]
[18] = molecular target: T5, Dual specificity protein phosphatase 6 (Rattus norvegicus, UniProt Q64346); type: functional;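 note: confirmatory in vitro dose-response testing of MKP-3 inhibition; recombinant His-tagged MKP-3 made in E. coli BL21 with OMFP substrate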
T5 sequence (Q64346 whole entry): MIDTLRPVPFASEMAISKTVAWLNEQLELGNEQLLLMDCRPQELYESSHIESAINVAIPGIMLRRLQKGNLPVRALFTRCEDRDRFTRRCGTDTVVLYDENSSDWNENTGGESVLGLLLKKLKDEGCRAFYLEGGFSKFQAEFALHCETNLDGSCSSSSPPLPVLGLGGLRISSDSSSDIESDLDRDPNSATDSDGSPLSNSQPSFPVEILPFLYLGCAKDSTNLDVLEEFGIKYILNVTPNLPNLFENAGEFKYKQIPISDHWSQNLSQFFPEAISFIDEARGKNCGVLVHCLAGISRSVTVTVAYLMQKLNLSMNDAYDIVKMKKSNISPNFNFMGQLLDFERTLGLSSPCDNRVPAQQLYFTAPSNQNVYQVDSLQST

[19] = molecular target: T6, Zinc finger protein mex-5 (Caenorhabditis elegans, UniProt Q9XUB2); assay: MEX-5/TCR-2 RNA interaction inhibitors, dose response, biochemical, C. elegans, fluorescence polarization (AID 1960)
T6 sequence (Q9XUB2 whole entry): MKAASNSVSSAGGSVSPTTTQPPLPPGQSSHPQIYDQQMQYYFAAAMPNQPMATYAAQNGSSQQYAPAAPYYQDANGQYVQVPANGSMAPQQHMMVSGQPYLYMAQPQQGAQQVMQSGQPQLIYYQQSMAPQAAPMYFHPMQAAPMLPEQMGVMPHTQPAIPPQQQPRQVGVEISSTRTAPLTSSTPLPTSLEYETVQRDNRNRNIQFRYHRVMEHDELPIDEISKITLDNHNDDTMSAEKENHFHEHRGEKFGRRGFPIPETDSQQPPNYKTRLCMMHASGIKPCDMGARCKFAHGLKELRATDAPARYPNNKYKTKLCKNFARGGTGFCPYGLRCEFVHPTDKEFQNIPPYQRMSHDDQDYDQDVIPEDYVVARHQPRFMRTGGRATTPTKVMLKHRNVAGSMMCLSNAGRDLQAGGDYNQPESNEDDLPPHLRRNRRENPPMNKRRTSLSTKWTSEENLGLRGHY

[20] = molecular target: Dual specificity tyrosine-phosphorylation-regulated kinase 1A (Rattus norvegicus, UniProt Q63470); type: biochemical, Homo sapiens
[21] = molecular target: T7, Long-chain-fatty-acid--AMP ligase FadD28 (Mycobacterium tuberculosis, UniProt P9WQ59); assay: Fluorescence polarization aasay to screen for inhibitors that compete for the binding of FadD28 to a bisubstrate Measured in Biochemical System Using Plate Reader - 2147-01_Inhibitor_Dose_CherryPick_Activity.; type: functional, Mycobacterium tuberculosis H37Rv
T7 sequence (P9WQ59 whole entry): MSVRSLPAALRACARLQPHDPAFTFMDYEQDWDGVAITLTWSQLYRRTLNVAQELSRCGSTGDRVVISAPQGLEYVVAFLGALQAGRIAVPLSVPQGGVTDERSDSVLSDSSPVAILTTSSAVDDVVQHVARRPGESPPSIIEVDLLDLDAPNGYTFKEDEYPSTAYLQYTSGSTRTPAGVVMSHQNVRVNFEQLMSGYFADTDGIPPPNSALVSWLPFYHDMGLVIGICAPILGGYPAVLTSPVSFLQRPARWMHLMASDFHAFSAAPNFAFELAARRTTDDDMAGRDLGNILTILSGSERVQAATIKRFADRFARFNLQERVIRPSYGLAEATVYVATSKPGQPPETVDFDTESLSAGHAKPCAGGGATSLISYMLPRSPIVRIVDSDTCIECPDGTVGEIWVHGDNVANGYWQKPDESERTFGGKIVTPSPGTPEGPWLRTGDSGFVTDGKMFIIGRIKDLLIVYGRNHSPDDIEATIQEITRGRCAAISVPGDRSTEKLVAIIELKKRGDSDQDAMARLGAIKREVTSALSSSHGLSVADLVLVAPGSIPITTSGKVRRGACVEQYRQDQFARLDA

Troponin, cardiac muscle = Troponin, cardiac muscle (Homo sapiens, UniProt P19429+P45379+P63316); assay: Fluorescence-based biochemical high throughput dose response assay for activators of the calcium sensitivity of cardiac Regulated Thin Filaments (RTF). [Related pubchem assays (depositor defined):AID493008, AID493018, AID504382, AID504383]; type: protein-complex assay
[22] = growth suppression of beta-catenin-knockout colon cells, dose response, cell-based, HCT116, human colon tumor (AID 1045); type: functional;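 note: HCT116 colon tumor cells with beta catenin knocked out; cells exposed to compound for 60 hours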
Fibrinogen beta chain [23] = molecular target: T8, Fibrinogen beta chain (Homo sapiens, UniProt P02675); assay: Fluorescence polarization-based biochemical high throughput dose response assay to identify inhibitors that disrupt the binding of a cyclic peptide (Tn7) to the fibrin proteolytic product D-Dimer and fragment E complex [DD(E )].
Keap1/Nrf2 = Keap1/Nrf2 (Homo sapiens, UniProt Q14145); assay: Keap1-Nrf2 protein-protein interaction inhibitors, dose response, biochemical, fluorescence polarization, cherry-picked samples (AID 588683)
[24] = growth suppression of PTEN-null colon cells, dose response, cell-based, HCT116 PTEN knockout (AID 1047); type: functional;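 note: HCT116 colon tumor cells with PTEN knocked out; cells exposed to compound for 60 hours before readout; potency for loss of cell viability measured by luminescence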
[25] = molecular target: T9, RNA-binding protein pos-1 (Caenorhabditis elegans, UniProt G5EF15); assay: inhibitors of POS-1/mex-3 RNA binding, dose response, biochemical, fluorescence polarization (AID 1964);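 note: purified POS-1 fused to maltose binding protein made in E. coli; potency of compounds blocking POS-1 binding to fluorescent RNA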
T9 sequence (G5EF15 whole entry): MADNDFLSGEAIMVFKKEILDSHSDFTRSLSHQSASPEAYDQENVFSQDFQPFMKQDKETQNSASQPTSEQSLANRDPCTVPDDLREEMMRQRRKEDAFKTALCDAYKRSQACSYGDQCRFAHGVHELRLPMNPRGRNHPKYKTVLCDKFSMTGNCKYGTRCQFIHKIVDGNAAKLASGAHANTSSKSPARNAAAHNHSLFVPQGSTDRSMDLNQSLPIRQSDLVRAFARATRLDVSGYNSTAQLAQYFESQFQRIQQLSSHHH

ORF 73 = ORF 73 (Human herpesvirus 8, UniProt O40947); assay: inhibitors of C-LANA binding to LBS DNA, dose response, biochemical, fluorescence polarization, cherry-picked samples (AID 504725); design: species or system Human gammaherpesvirus 8;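 note: fluorescence polarization of a labeled DNA duplex reporting LANA DNA binding; potency is for inhibitors that block LANA binding to the DNA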
Fibrinogen beta chain [26] = molecular target: T8, Fibrinogen beta chain; assay: Fluorescence polarization-based biochemical high throughput dose response assay to identify inhibitors that disrupt the binding of a cyclic peptide (Tn6) to the fibrin proteolytic product D-Dimer and fragment E complex [DD(E )].

T3 sequence (P51452 whole entry): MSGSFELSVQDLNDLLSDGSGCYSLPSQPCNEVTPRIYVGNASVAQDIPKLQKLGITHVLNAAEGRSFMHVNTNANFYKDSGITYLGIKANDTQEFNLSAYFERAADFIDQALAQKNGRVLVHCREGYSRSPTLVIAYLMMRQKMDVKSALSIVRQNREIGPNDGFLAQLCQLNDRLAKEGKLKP
T8 sequence (P02675 whole entry, the tested form may be a part): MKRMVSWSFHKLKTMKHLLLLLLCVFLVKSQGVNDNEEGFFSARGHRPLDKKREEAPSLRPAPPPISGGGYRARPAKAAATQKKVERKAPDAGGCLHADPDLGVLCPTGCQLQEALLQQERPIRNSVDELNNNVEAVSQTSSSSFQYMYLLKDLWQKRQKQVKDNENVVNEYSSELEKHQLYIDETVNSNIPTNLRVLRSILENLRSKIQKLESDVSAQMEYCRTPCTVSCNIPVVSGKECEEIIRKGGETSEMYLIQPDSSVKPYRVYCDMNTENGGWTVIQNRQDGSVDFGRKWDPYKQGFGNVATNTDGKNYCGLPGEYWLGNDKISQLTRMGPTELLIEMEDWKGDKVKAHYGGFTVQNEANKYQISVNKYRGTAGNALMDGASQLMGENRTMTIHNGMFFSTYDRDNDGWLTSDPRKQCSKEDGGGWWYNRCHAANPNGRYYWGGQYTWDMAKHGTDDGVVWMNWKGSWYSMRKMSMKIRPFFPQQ
T2 sequence (Q00975 whole entry): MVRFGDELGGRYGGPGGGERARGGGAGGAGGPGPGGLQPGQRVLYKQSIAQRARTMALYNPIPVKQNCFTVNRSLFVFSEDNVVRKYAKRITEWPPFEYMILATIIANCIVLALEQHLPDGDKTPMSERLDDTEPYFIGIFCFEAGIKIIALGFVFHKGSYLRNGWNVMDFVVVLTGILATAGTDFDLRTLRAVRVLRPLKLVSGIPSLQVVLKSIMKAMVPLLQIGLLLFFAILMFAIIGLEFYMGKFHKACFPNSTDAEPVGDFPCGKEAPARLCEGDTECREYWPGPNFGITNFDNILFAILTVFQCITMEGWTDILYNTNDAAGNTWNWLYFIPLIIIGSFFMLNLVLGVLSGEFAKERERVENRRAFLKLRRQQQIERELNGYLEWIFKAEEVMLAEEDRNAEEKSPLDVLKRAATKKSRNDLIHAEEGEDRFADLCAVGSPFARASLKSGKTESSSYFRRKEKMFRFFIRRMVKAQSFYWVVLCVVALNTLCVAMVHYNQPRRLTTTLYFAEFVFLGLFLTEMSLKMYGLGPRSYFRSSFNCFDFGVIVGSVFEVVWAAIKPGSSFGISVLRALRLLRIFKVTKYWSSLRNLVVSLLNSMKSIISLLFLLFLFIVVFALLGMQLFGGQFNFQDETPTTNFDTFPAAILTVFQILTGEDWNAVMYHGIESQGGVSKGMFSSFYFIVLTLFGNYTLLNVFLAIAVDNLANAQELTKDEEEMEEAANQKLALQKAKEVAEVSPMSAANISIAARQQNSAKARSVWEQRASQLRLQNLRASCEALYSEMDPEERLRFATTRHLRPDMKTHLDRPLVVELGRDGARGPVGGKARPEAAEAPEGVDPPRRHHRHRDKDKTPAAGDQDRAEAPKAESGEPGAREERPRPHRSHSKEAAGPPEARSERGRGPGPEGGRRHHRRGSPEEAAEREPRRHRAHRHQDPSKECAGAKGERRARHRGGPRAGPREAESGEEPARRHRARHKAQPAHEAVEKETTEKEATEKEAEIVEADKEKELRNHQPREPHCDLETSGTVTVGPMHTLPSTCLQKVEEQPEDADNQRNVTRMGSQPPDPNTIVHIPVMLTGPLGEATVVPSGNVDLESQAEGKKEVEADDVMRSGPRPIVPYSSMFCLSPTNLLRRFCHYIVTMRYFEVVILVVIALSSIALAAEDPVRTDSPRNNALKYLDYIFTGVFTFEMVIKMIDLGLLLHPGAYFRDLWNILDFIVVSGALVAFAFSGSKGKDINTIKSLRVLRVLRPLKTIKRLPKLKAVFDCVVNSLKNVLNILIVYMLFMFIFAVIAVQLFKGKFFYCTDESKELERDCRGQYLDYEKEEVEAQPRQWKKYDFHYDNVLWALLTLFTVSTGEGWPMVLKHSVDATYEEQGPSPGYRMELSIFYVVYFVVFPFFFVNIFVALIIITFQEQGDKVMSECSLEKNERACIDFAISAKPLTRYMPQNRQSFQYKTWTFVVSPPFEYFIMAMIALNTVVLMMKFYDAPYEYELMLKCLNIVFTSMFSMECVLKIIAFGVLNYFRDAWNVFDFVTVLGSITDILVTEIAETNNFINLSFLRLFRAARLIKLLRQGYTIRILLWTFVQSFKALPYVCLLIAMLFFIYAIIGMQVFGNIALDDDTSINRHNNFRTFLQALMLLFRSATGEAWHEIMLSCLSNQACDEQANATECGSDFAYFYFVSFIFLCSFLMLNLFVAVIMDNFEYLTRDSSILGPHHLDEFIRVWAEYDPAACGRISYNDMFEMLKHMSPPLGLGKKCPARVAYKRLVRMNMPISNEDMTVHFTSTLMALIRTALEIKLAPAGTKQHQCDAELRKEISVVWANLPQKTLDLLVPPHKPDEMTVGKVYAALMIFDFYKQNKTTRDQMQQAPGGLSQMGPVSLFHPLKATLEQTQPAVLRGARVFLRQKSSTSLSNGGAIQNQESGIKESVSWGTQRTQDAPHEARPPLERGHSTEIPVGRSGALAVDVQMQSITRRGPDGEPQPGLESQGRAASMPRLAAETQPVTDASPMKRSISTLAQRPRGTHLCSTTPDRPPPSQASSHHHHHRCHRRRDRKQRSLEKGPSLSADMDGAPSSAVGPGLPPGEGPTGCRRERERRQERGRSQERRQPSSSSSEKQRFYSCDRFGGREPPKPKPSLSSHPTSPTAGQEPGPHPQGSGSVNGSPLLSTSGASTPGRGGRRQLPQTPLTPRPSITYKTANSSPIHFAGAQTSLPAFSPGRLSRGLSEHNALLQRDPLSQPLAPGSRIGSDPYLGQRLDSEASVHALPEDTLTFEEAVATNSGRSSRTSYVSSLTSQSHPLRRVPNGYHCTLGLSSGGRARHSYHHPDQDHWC
T2 sequence (Q02410 whole entry): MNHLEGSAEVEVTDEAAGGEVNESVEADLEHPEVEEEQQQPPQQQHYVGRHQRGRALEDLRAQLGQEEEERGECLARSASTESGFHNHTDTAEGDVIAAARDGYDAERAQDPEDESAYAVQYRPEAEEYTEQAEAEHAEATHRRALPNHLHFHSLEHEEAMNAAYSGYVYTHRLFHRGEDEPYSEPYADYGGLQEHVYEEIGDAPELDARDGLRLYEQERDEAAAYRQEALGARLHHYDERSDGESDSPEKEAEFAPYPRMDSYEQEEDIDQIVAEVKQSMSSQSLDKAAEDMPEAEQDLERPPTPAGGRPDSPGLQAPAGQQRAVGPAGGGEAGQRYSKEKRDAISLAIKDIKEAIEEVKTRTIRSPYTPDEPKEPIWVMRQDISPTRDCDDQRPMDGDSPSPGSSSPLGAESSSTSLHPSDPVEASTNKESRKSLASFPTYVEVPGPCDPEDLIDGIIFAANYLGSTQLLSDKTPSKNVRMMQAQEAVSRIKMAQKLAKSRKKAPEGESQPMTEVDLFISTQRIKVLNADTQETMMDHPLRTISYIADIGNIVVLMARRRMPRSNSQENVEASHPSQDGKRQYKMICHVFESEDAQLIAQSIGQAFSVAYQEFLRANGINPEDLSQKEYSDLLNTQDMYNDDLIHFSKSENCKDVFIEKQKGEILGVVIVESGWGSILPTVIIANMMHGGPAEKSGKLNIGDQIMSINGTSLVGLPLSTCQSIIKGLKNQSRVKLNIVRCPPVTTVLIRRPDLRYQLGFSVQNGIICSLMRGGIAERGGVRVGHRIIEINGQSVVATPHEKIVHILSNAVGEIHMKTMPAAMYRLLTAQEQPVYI
Chain of Beta-galactosidase (Q8VNN2 whole entry): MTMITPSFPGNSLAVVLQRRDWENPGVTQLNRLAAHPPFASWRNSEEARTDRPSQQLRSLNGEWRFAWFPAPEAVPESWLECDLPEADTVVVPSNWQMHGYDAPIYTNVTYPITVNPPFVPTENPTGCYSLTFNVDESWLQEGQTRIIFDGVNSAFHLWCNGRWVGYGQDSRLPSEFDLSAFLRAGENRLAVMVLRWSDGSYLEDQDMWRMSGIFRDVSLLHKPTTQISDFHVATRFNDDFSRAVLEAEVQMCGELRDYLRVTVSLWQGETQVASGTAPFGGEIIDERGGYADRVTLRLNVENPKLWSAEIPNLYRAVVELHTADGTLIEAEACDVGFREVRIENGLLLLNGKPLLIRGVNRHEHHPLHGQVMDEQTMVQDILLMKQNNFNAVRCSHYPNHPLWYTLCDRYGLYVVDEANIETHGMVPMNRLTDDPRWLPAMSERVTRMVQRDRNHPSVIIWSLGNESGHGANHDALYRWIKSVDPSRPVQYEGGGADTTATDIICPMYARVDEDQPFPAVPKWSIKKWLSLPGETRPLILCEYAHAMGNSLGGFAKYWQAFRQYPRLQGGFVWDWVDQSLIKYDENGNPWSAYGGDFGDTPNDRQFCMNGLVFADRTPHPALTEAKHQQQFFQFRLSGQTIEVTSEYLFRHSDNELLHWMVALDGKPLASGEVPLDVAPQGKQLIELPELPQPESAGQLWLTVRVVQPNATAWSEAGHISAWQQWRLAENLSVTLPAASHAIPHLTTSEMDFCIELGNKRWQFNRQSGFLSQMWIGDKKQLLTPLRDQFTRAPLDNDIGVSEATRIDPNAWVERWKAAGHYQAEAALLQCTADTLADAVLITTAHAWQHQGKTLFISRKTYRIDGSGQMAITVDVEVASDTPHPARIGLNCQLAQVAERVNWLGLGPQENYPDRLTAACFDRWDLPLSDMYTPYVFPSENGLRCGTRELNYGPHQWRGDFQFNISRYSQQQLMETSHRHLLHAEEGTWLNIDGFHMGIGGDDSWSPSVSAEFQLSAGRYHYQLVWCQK

O=C1C=CC(=O)N1CCNc1ncc(C(F)(F)F)cc1Cl
inactive: IC50 (Melanocortin receptor 4) 12.3 µM | IC50 [10] 15.1 µM | IC50 (Beta-galactosidase) > 66.6 µM | IC50 [12] > 80 µM
active: EC50 [1] 10.4 µM | IC50 (CHO) 1.62 µM | AC50 [2] 0.947 µM | AC50 [3] 0.482 µM | EC50 [4] 2.78 µM | EC50 [5] 3.98 µM | IC50 [6] 0.383 µM | AC50 [7] 11.9 µM | AC50 [8] 16 µM | IC50 [9] 12 µM | IC50 [11] 1.53 µM
> 150 µM (not active): EC50 (Streptokinase A) | EC50 (Streptococcus)

COc1ccc(NC(=O)C2CC(=O)N(C)/C(=N\c3ccccc3OC)S2)cc1 (centres undefined)
inactive: IC50 [13] > 100 µM | IC50 [14] > 100 µM

CNC(=O)c1cn(CCOc2ccccc2)c2ccccc12
active: IC50 [16] 86.8 µM
inactive: IC50 [15] > 100 µM | IC50 [17] > 100 µM | IC50 [18] > 100 µM

N#CC1=C(N)Oc2ccc3ccc(O)cc3c2C1c1ccsc1 (centres undefined)
inconclusive: EC50 [19] 11 µM | EC50 [25] 76.1 µM
active: AC50 [20] 8.56 µM | AC50 [21] 52.3 µM | EC50 [22] 15.4 µM | EC50 [24] 10.4 µM | AC50 (ORF 73) 51.6 µM | IC50 (Fibrinogen beta chain [26]) 8.51 µM
inactive: EC50 (Troponin, cardiac muscle) 18.8 µM | IC50 (Fibrinogen beta chain [23]) > 83.3 µM | AC50 (Keap1/Nrf2) > 52 µM
